{"source": "the kinase profiling compilation of Christmann-Franck et al. (2016)", "experiment_in_all_cases": "KINOMEscan competition binding", "details_in_all_cases": "compound 10.0 µM", "key": {"EPHB3 (human)": {"biological_target": "EPHB3 (human) (UniProt P54753)"}, "[1]": {"system": "ABL1 (human), P00519 [Y253F]"}, "PIP5K1C (human)": {"biological_target": "PIP5K1C (human) (UniProt O60331)"}, "DMPK (human)": {"biological_target": "DMPK (human) (UniProt Q09013)"}, "CDKL5 (human)": {"biological_target": "CDKL5 (human) (UniProt O76039)"}, "AKT1 (human)": {"biological_target": "AKT1 (human) (UniProt P31749)"}, "[2]": {"system": "RET (human), P07949 [M918T]"}, "PLK2 (human)": {"biological_target": "PLK2 (human) (UniProt Q9NYY3)"}, "CDC42BPG (human)": {"biological_target": "CDC42BPG (human) (UniProt Q6DT37)"}, "CHEK1 (human)": {"biological_target": "CHEK1 (human) (UniProt O14757)"}, "MAPKAPK2 (human)": {"biological_target": "MAPKAPK2 (human) (UniProt P49137)"}, "FLT1 (human)": {"biological_target": "FLT1 (human) (UniProt P17948)"}, "MYLK (human)": {"biological_target": "MYLK (human) (UniProt Q15746)"}, "MAP3K13 (human)": {"biological_target": "MAP3K13 (human) (UniProt O43283)", "sequence (O43283 whole entry, looked up)": "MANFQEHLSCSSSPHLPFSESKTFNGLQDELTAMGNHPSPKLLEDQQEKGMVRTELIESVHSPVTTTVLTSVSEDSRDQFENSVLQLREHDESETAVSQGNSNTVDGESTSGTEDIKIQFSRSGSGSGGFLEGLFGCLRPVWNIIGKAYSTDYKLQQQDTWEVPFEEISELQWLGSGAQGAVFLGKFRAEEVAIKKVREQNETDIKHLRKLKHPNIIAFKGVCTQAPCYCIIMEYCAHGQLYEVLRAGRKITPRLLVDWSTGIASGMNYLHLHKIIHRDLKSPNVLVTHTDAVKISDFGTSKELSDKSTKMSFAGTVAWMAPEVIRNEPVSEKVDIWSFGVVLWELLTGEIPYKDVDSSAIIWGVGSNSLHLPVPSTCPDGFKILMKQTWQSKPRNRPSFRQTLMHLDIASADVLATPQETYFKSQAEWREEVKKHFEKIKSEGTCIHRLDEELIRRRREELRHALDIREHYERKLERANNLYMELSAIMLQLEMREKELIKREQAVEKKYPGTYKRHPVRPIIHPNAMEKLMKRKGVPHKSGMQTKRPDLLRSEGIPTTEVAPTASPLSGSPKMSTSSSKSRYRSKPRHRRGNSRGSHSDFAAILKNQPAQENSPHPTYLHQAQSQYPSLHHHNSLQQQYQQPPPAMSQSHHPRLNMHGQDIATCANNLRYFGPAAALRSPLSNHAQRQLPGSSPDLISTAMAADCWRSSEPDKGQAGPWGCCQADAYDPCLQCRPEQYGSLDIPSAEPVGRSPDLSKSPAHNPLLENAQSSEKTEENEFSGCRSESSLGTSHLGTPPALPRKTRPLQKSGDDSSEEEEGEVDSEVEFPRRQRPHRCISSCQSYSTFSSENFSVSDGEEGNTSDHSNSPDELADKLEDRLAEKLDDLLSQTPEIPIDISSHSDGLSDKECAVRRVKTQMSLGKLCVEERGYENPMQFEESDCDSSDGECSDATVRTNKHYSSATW"}, "STK35 (human)": {"biological_target": "STK35 (human) (UniProt Q8TDR2)"}, "ERBB3 (human)": {"biological_target": "ERBB3 (human) (UniProt P21860)", "sequence (P21860 whole entry, looked up)": "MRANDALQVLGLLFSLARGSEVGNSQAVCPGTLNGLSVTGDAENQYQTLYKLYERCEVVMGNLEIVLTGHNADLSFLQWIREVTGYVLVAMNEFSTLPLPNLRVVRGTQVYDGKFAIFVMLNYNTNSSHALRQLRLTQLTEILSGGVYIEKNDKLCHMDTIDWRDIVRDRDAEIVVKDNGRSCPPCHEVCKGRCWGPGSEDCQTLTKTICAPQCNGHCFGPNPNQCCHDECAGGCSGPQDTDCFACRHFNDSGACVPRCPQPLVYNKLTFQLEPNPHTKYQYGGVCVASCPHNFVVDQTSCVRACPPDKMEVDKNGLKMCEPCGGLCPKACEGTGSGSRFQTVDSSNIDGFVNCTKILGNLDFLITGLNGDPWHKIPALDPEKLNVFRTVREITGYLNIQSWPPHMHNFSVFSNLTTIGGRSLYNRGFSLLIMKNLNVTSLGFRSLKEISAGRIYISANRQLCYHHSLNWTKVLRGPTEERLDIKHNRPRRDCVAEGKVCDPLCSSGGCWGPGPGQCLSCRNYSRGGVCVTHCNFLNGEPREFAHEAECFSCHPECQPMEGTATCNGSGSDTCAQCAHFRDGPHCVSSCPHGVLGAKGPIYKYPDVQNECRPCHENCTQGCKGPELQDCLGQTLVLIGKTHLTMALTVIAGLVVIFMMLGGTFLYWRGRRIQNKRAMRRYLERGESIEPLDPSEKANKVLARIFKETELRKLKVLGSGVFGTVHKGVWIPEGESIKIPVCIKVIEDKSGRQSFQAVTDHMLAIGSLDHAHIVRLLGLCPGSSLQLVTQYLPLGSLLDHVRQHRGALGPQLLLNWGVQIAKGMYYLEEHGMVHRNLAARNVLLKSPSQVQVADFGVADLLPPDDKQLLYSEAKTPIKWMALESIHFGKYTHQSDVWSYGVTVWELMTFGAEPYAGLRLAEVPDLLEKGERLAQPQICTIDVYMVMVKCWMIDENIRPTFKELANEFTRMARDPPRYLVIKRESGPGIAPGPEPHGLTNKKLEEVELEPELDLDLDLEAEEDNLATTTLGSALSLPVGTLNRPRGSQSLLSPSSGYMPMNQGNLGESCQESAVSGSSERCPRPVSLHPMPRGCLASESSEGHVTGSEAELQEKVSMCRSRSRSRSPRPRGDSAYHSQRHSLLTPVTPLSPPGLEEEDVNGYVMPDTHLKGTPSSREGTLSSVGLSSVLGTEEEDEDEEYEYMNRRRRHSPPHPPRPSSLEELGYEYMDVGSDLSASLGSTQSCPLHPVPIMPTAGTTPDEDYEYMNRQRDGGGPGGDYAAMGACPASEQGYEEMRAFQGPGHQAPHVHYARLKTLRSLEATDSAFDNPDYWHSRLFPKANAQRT"}, "TAOK1 (human)": {"biological_target": "TAOK1 (human) (UniProt Q7L7X3)"}, "CSNK1A1L (human)": {"biological_target": "CSNK1A1L (human) (UniProt Q8N752)"}, "ACVR1B (human)": {"biological_target": "ACVR1B (human) (UniProt P36896)", "sequence (P36896 whole entry, looked up)": "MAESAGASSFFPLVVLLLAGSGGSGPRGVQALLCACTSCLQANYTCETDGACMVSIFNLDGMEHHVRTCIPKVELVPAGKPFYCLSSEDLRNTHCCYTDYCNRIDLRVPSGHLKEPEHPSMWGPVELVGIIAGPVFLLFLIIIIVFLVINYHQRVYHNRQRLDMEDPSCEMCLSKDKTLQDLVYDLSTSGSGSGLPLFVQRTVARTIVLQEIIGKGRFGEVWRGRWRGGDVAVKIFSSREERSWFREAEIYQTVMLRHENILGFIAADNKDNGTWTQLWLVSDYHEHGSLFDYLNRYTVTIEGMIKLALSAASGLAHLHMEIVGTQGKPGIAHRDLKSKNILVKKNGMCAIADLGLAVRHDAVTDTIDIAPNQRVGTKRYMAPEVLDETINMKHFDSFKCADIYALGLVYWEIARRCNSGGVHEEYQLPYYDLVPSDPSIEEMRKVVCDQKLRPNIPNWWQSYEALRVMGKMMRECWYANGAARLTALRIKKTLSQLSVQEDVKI"}, "RIOK1 (human)": {"biological_target": "RIOK1 (human) (UniProt Q9BRS2)"}, "SYK (human)": {"biological_target": "SYK (human) (UniProt P43405)"}, "MARK4 (human)": {"biological_target": "MARK4 (human) (UniProt Q96L34)"}, "FGFR3 (human)": {"biological_target": "FGFR3 (human) (UniProt P22607)"}, "MAP3K15 (human)": {"biological_target": "MAP3K15 (human) (UniProt Q6ZN16)"}, "NLK (human)": {"biological_target": "NLK (human) (UniProt Q9UBE8)", "sequence (Q9UBE8 whole entry, looked up)": "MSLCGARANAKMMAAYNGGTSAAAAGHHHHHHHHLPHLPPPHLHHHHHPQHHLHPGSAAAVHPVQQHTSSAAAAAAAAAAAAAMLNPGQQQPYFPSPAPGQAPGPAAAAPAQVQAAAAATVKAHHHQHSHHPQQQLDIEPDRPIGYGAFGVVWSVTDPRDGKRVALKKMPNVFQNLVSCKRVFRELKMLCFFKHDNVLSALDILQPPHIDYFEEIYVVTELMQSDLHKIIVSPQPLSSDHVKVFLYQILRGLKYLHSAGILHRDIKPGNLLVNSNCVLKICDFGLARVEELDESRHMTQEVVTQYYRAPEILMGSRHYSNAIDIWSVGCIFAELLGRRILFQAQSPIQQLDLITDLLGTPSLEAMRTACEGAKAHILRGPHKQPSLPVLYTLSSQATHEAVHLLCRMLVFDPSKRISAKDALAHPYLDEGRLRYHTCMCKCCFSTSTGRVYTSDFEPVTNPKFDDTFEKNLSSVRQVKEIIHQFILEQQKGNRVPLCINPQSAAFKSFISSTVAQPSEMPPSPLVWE"}, "SLK (human)": {"biological_target": "SLK (human) (UniProt Q9H2G2)"}, "RPS6KA1 KD2 (human)": {"biological_target": "RPS6KA1 KD2 (human) (UniProt Q15418)"}, "CLK2 (human)": {"biological_target": "CLK2 (human) (UniProt P49760)", "sequence (P49760 whole entry, looked up)": "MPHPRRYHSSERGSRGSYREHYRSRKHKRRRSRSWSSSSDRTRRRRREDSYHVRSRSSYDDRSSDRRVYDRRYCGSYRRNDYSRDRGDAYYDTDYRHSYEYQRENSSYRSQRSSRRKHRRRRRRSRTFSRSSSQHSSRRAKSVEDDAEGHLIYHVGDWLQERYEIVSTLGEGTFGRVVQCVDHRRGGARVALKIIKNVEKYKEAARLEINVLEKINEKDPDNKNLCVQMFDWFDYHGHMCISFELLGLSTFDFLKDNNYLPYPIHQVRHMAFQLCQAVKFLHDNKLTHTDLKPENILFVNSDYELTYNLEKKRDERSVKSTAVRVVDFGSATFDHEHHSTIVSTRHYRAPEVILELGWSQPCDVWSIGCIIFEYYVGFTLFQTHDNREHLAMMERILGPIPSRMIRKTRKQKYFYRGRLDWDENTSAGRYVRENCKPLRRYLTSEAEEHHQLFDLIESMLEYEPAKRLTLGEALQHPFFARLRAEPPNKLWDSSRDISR"}, "EPHA4 (human)": {"biological_target": "EPHA4 (human) (UniProt P54764)"}, "PIK3CD (human)": {"biological_target": "PIK3CD (human) (UniProt O00329)"}, "NTRK3 (human)": {"biological_target": "NTRK3 (human) (UniProt Q16288)"}, "GRK4 (human)": {"biological_target": "GRK4 (human) (UniProt P32298)", "sequence (P32298 whole entry, looked up)": "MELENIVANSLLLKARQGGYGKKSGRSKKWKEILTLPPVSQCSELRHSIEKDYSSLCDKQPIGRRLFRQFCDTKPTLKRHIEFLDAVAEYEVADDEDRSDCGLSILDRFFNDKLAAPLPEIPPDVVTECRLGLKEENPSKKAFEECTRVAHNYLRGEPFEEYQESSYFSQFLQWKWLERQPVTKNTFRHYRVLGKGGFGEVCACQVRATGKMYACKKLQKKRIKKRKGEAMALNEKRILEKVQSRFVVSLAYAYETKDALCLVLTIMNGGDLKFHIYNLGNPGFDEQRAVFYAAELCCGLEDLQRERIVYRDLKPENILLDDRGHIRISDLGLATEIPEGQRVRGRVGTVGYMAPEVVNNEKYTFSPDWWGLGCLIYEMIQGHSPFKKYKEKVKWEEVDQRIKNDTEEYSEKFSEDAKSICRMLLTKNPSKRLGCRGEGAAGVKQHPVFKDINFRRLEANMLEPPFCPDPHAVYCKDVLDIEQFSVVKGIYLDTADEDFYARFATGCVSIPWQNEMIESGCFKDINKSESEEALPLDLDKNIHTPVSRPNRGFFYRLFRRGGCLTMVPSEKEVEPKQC"}, "MAPK7 (human)": {"biological_target": "MAPK7 (human) (UniProt Q13164)"}, "CDC2L2 (human)": {"biological_target": "CDC2L2 (human) (UniProt Q9UQ88)"}, "MAP4K5 (human)": {"biological_target": "MAP4K5 (human) (UniProt Q9Y4K4)"}, "MAP3K2 (human)": {"biological_target": "MAP3K2 (human) (UniProt Q9Y2U5)", "sequence (Q9Y2U5 whole entry, looked up)": "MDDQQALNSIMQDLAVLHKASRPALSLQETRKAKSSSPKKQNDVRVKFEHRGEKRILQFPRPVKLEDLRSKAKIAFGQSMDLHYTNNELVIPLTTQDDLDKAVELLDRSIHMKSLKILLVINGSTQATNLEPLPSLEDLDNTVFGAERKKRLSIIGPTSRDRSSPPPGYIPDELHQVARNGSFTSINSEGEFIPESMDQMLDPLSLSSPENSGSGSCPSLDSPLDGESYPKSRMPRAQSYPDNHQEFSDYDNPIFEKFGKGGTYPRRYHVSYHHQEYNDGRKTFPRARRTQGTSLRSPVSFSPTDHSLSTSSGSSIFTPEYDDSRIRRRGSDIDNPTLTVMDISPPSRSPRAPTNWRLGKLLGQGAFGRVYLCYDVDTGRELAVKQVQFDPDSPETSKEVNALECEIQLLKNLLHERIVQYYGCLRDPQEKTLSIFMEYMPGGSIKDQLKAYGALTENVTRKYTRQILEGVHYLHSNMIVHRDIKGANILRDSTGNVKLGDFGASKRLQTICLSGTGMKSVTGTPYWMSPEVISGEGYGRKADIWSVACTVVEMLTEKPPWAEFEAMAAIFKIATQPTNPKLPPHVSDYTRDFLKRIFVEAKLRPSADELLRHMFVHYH"}, "STK25 (human)": {"biological_target": "STK25 (human) (UniProt O00506)"}, "IKBKB (human)": {"biological_target": "IKBKB (human) (UniProt O14920)"}, "CDK15 (human)": {"biological_target": "CDK15 (human) (UniProt Q96Q40)"}}, "data": [{"smiles": "COc1cc2ncn(-c3cc(OCc4ccccc4C(F)(F)F)c(C(N)=O)s3)c2cc1OC", "values": [{"measurement": "kinase still bound, per cent of control", "setting": "EPHB3 (human)", "result": 76, "unit": "%"}, {"measurement": "kinase still bound, per cent of control", "setting": "[1]", "result": 88, "unit": "%"}, {"measurement": "kinase still bound, per cent of control", "setting": "PIP5K1C (human)", "result": 10, "unit": "%"}, {"measurement": "kinase still bound, per cent of control", "setting": "DMPK (human)", "result": 98, "unit": "%"}, {"measurement": "kinase still bound, per cent of control", "setting": "CDKL5 (human)", "result": 73, "unit": "%"}, {"measurement": "kinase still bound, per cent of control", "setting": "AKT1 (human)", "result": 100, "unit": "%"}, {"measurement": "kinase still bound, per cent of control", "setting": "[2]", "result": 8, "unit": "%"}, {"measurement": "kinase still bound, per cent of control", "setting": "PLK2 (human)", "result": 0.2, "unit": "%"}, {"measurement": "kinase still bound, per cent of control", "setting": "CDC42BPG (human)", "result": 64, "unit": "%"}, {"measurement": "kinase still bound, per cent of control", "setting": "CHEK1 (human)", "result": 100, "unit": "%"}, {"measurement": "kinase still bound, per cent of control", "setting": "MAPKAPK2 (human)", "result": 100, "unit": "%"}, {"measurement": "kinase still bound, per cent of control", "setting": "FLT1 (human)", "result": 58, "unit": "%"}, {"measurement": "kinase still bound, per cent of control", "setting": "MYLK (human)", "result": 50, "unit": "%"}, {"measurement": "kinase still bound, per cent of control", "setting": "MAP3K13 (human)", "result": 100, "unit": "%"}, {"measurement": "kinase still bound, per cent of control", "setting": "STK35 (human)", "result": 56, "unit": "%"}, {"measurement": "kinase still bound, per cent of control", "setting": "ERBB3 (human)", "result": 100, "unit": "%"}, {"measurement": "kinase still bound, per cent of control", "setting": "TAOK1 (human)", "result": 47, "unit": "%"}, {"measurement": "kinase still bound, per cent of control", "setting": "CSNK1A1L (human)", "result": 78, "unit": "%"}, {"measurement": "kinase still bound, per cent of control", "setting": "ACVR1B (human)", "result": 76, "unit": "%"}, {"measurement": "kinase still bound, per cent of control", "setting": "RIOK1 (human)", "result": 4.1, "unit": "%"}, {"measurement": "kinase still bound, per cent of control", "setting": "SYK (human)", "result": 72, "unit": "%"}, {"measurement": "kinase still bound, per cent of control", "setting": "MARK4 (human)", "result": 99, "unit": "%"}, {"measurement": "kinase still bound, per cent of control", "setting": "FGFR3 (human)", "result": 20, "unit": "%"}, {"measurement": "kinase still bound, per cent of control", "setting": "MAP3K15 (human)", "result": 63, "unit": "%"}, {"measurement": "kinase still bound, per cent of control", "setting": "NLK (human)", "result": 68, "unit": "%"}, {"measurement": "kinase still bound, per cent of control", "setting": "SLK (human)", "result": 0.25, "unit": "%"}, {"measurement": "kinase still bound, per cent of control", "setting": "RPS6KA1 KD2 (human)", "result": 63, "unit": "%"}, {"measurement": "kinase still bound, per cent of control", "setting": "CLK2 (human)", "result": 47, "unit": "%"}, {"measurement": "kinase still bound, per cent of control", "setting": "EPHA4 (human)", "result": 83, "unit": "%"}, {"measurement": "kinase still bound, per cent of control", "setting": "PIK3CD (human)", "result": 78, "unit": "%"}, {"measurement": "kinase still bound, per cent of control", "setting": "NTRK3 (human)", "result": 93, "unit": "%"}, {"measurement": "kinase still bound, per cent of control", "setting": "GRK4 (human)", "result": 18, "unit": "%"}, {"measurement": "kinase still bound, per cent of control", "setting": "MAPK7 (human)", "result": 100, "unit": "%"}, {"measurement": "kinase still bound, per cent of control", "setting": "CDC2L2 (human)", "result": 99, "unit": "%"}, {"measurement": "kinase still bound, per cent of control", "setting": "MAP4K5 (human)", "result": 3, "unit": "%"}, {"measurement": "kinase still bound, per cent of control", "setting": "MAP3K2 (human)", "result": 100, "unit": "%"}]}, {"smiles": "CNC(=O)c1cc(Oc2ccc(NC(=O)Nc3ccc(Cl)c(C(F)(F)F)c3)cc2)ccn1", "values": [{"measurement": "kinase still bound, per cent of control", "setting": "EPHB3 (human)", "result": 100, "unit": "%"}, {"measurement": "kinase still bound, per cent of control", "setting": "PIP5K1C (human)", "result": 87, "unit": "%"}, {"measurement": "kinase still bound, per cent of control", "setting": "DMPK (human)", "result": 100, "unit": "%"}, {"measurement": "kinase still bound, per cent of control", "setting": "CDKL5 (human)", "result": 56, "unit": "%"}, {"measurement": "kinase still bound, per cent of control", "setting": "AKT1 (human)", "result": 100, "unit": "%"}, {"measurement": "kinase still bound, per cent of control", "setting": "[2]", "result": 0.1, "unit": "%"}, {"measurement": "kinase still bound, per cent of control", "setting": "PLK2 (human)", "result": 71, "unit": "%"}, {"measurement": "kinase still bound, per cent of control", "setting": "CHEK1 (human)", "result": 91, "unit": "%"}, {"measurement": "kinase still bound, per cent of control", "setting": "MAPKAPK2 (human)", "result": 100, "unit": "%"}, {"measurement": "kinase still bound, per cent of control", "setting": "STK25 (human)", "result": 80, "unit": "%"}, {"measurement": "kinase still bound, per cent of control", "setting": "FLT1 (human)", "result": 6.6, "unit": "%"}, {"measurement": "kinase still bound, per cent of control", "setting": "MYLK (human)", "result": 83, "unit": "%"}, {"measurement": "kinase still bound, per cent of control", "setting": "MAP3K13 (human)", "result": 100, "unit": "%"}, {"measurement": "kinase still bound, per cent of control", "setting": "STK35 (human)", "result": 34, "unit": "%"}, {"measurement": "kinase still bound, per cent of control", "setting": "ERBB3 (human)", "result": 100, "unit": "%"}, {"measurement": "kinase still bound, per cent of control", "setting": "TAOK1 (human)", "result": 23, "unit": "%"}, {"measurement": "kinase still bound, per cent of control", "setting": "CSNK1A1L (human)", "result": 98, "unit": "%"}, {"measurement": "kinase still bound, per cent of control", "setting": "ACVR1B (human)", "result": 92, "unit": "%"}, {"measurement": "kinase still bound, per cent of control", "setting": "RIOK1 (human)", "result": 100, "unit": "%"}, {"measurement": "kinase still bound, per cent of control", "setting": "SYK (human)", "result": 88, "unit": "%"}, {"measurement": "kinase still bound, per cent of control", "setting": "MARK4 (human)", "result": 100, "unit": "%"}, {"measurement": "kinase still bound, per cent of control", "setting": "FGFR3 (human)", "result": 31, "unit": "%"}, {"measurement": "kinase still bound, per cent of control", "setting": "MAP3K15 (human)", "result": 100, "unit": "%"}, {"measurement": "kinase still bound, per cent of control", "setting": "NLK (human)", "result": 32, "unit": "%"}, {"measurement": "kinase still bound, per cent of control", "setting": "SLK (human)", "result": 15, "unit": "%"}, {"measurement": "kinase still bound, per cent of control", "setting": "RPS6KA1 KD2 (human)", "result": 100, "unit": "%"}, {"measurement": "kinase still bound, per cent of control", "setting": "IKBKB (human)", "result": 100, "unit": "%"}, {"measurement": "kinase still bound, per cent of control", "setting": "CLK2 (human)", "result": 55, "unit": "%"}, {"measurement": "kinase still bound, per cent of control", "setting": "EPHA4 (human)", "result": 42, "unit": "%"}, {"measurement": "kinase still bound, per cent of control", "setting": "CDK15 (human)", "result": 19, "unit": "%"}, {"measurement": "kinase still bound, per cent of control", "setting": "GRK4 (human)", "result": 100, "unit": "%"}, {"measurement": "kinase still bound, per cent of control", "setting": "MAPK7 (human)", "result": 85, "unit": "%"}, {"measurement": "kinase still bound, per cent of control", "setting": "CDC2L2 (human)", "result": 85, "unit": "%"}, {"measurement": "kinase still bound, per cent of control", "setting": "MAP4K5 (human)", "result": 7.2, "unit": "%"}, {"measurement": "kinase still bound, per cent of control", "setting": "MAP3K2 (human)", "result": 100, "unit": "%"}]}]}
